# Experimental data reported in patent US20130310396A1, “THIAZOLIDINE DERIVATIVES AND THEIR THERAPEUTIC USE” (priority 2011, published 2013).
# Test: in vitro
# Type: in vitro ADME
# Conditions: human liver microsomes, 0.5 mg/mL microsomal protein, 1 mM NADPH, 37° C., N=1; for half-life: both sexes
# Experimental: The liver microsomes stability of compounds of Examples 1, 4 and 5 were compared with Teneligliptin.
# The metabolic stability of compounds of the invention was tested using pooled liver microsomes prepared from mixed-gender humans, with 1 mM NADPH. The samples were analyzed using an LTQ-Orbitrap XL mass spectrometer. HRMS was used to determine the peak area response ratio (peak area corresponding to test compound or control divided by that of an analytical internal standard) without running a standard curve. HRMS scan was performed in an appropriate m/z range in order to detect all plausible metabolites.
# The assay was run with a single incubation (N=1). Incubated test compounds at 37° C. in a buffer solution containing 0.5 mg/mL microsomal protein. Initiated the reaction by adding cofactors, sampling at 0, 10, 20, 30, and 60 minutes. Incubated positive control (5 μM testosterone) in parallel and sampling at 0, 5 10, and 30 minutes.
# The control compound testosterone was run in parallel to verify the enzymatic activity of the microsomes. After the final time point, fluorimetry was used to confirm the addition of NADPH to the reaction mixture. T1/2 of control met the internal acceptance criteria.
# Column: Thermo BDS Hypersil C18 30×2.0 mm, 3 μm, with guard column M.P. Buffer: 25 mM ammonium formate buffer, pH 3.5 Aqueous Reservoir (A): 90% water, 10% buffer Organic Reservoir (B): 90% acetonitrile, 10% buffer
half-life [min],Percentage Remaining 0 min [%],Percentage Remaining 10 min [%],Percentage Remaining 20 min [%],Percentage Remaining 30 min [%],Percentage Remaining 60 min [%],Compound
> 60,100,92,85,70,60,"[2H]C1([2H])CSC([2H])([2H])N1C(=O)C1CC(N2CCN(c3cc(C)nn3-c3ccccc3)CC2)CN1 [Example 1, ((2S,4S)-4-(4-(3-Methyl-1-phenyl-1H-pyrazol-5-yl)piperazin-1-yl)pyrrolidin-2-yl)(2,2,4,4-D4-thiazolidin-3-yl)methanone]"
> 60,100,95,87,75,65,"[2H]c1ccc(-n2nc(C)cc2N2CCN([C@@H]3CN[C@H](C(=O)N4CCSC4)C3)CC2)cc1 [Example 4, ((2S,4S)-4-(4-(1-(4-D-Phenyl)-3-methyl-1H-pyrazol-5-yl)piperazin-1-yl)pyrrolidin-2-yl)(thiazolidin-3-yl)methanone]"
> 60,100,90,87,70,60,[2H][C@@]1(N2CCN(c3cc(C)nn3-c3ccccc3)CC2)CN[C@H](C(=O)N2CCSC2)C1 [Example 5]
> 60,100,90,85,65,55,"Cc1cc(N2CCN([C@@H]3CN[C@H](C(=O)N4CCSC4)C3)CC2)n(-c2ccccc2)n1 [Teneligliptin, ((2S,4S)-4-(4-(3-methyl-1-phenyl-1H-pyrazol-5-yl)piperazin-1-yl)pyrrolidin-2-yl)(thiazolidin-3-yl)methanone, reference compound]"
